ChEMBL document CHEMBL4130613, “Identification and Proposed Relative and Absolute Configurations of Niphimycins C-E from the Marine-Derived Streptomyces sp. IMB7-145 by Genomic Analysis” (J Nat Prod, 2018)
Values after ≈ are worked out from the molar mass of the structure shown.

Tests used:
Assay type in all cases: functional
[1] = tested on: Mycobacterium tuberculosis; assay: Antibacterial activity against isonizaid/rifampicin-resistant Mycobacterium tuberculosis isolate FJ05120 after 18 hrs by agar dilution method; details: isolate FJ05120, 18 h
[2] = tested on: Mycobacterium tuberculosis; assay: Antibacterial activity against isonizaid/rifampicin/streptomycin/ethambutol-resistant Mycobacterium tuberculosis isolate FJ05436 after 18 hrs by agar dilution method; details: isolate FJ05436, 18 h
[3] = tested on: Mycobacterium tuberculosis; assay: Antibacterial activity against isonizaid/rifampicin/streptomycin/ethambutol-resistant Mycobacterium tuberculosis isolate FJ05195 after 18 hrs by agar dilution method; details: isolate FJ05195, 18 h

CNC(=N)NCCC/C=C/CCC[C@H](C)C[C@H](C)[C@H]1OC(=O)[C@H](C)[C@H](O)/C=C/[C@H](C)[C@H](O)C[C@H](O)[C@H](C)[C@@H](O)CC[C@H](C)[C@H](O)C[C@]2(O)O[C@H](C[C@@H](OC(=O)CC(=O)O)C[C@H](O)C[C@@H](O)[C@H](C)[C@H](O)/C=C/C=C/[C@@H]1C)C[C@H](O)[C@H]2O
MIC [1]: 4 to 16 µg/mL (≈ 3.5 to 14 µM)
MIC [2]: 4 to 32 µg/mL (≈ 3.5 to 28 µM)
MIC [3]: 4 to 32 µg/mL (≈ 3.5 to 28 µM)

CNC(=N)NCCC/C=C/CCC[C@H](C)C[C@H](C)[C@H]1OC(=O)[C@H](C)[C@H](O)/C=C/[C@H](C)[C@H](O)C[C@H](O)[C@H](C)[C@@H](O)CC[C@H](C)[C@H](O)C[C@]2(O)O[C@H](C[C@@H](O)C[C@H](OC(=O)CC(=O)O)C[C@@H](O)[C@H](C)[C@H](O)/C=C/C=C/[C@@H]1C)C[C@H](O)[C@H]2O
MIC [1]: 4 to 16 µg/mL (≈ 3.5 to 14 µM)
MIC [2]: 4 to 32 µg/mL (≈ 3.5 to 28 µM)
MIC [3]: 4 to 32 µg/mL (≈ 3.5 to 28 µM)
